According to PubChem BioAssay AID256 (DTP/NCI, 2004):
“And” between values parts separate entries of the source, which are not always exact repeats. Equal entries are not always repeated. Toxic doses and inconclusive results are not listed. Rule for the calls: active = survival T/C of 150% or more; inactive = T/C below 125% in these data.

Tested on: CD2F1 mice, L1210 leukemia ip, survival T/C
Assay: NCI In Vivo Anticancer Drug Screen. Data for tumor model L1210 Leukemia (intraperitoneal) in CD2F1 (CDF1) mice
Conditions: higher = longer survival
Summary of the method: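 In this screen, transplantable tumors were grown in mice given either the compound or its vehicle. Results were expressed as the treated measurement relative to the control measurement.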

[1] = endpoint: mean survival time, dose: 6.25 mg/kg/injection, schedule: Q01DX009 (ip), vehicle: saline with Tween-80
[2] = endpoint: mean survival time, dose: 100.0 mg/kg/injection, schedule: Q01DX009 (ip), vehicle: saline with Tween-80
[3] = endpoint: mean survival time, dose: 200.0 mg/kg/injection, schedule: Q01DX009 (ip), vehicle: saline with Tween-80
[4] = endpoint: mean survival time, dose: 100.0 mg/kg/injection, schedule: Q01DX001 (ip), vehicle: saline with Tween-80
[5] = endpoint: mean survival time, dose: 200.0 mg/kg/injection, schedule: Q01DX001 (ip), vehicle: saline with Tween-80
[6] = endpoint: mean survival time, dose: 400.0 mg/kg/injection, schedule: Q01DX001 (ip), vehicle: saline with Tween-80
[7] = endpoint: mean survival time, dose: 100.0 mg/kg/injection, schedule: Q04DX003 (ip), vehicle: saline with Tween-80
[8] = endpoint: mean survival time, dose: 200.0 mg/kg/injection, schedule: Q04DX003 (ip), vehicle: saline with Tween-80
[9] = endpoint: mean survival time, dose: 400.0 mg/kg/injection, schedule: Q04DX003 (ip), vehicle: saline with Tween-80
[10] = endpoint: mean survival time, dose: 100.0 mg/kg/injection, schedule: Q01DX001 (ip), vehicle: saline
[11] = endpoint: mean survival time, dose: 100.0 mg/kg/injection, schedule: Q04DX002 (ip), vehicle: saline with Tween-80
[12] = endpoint: mean survival time, dose: 200.0 mg/kg/injection, schedule: Q04DX002 (ip), vehicle: saline with Tween-80

Measured: T/C

CC1(C)CC1(Br)Br
inactive: [1] 94 % of control and 112 % of control | endpoint: mean survival time, dose: 12.5 mg/kg/injection, schedule: Q01DX009 (ip), vehicle: saline with Tween-80 94 % of control and 106 % of control | endpoint: mean survival time, dose: 25.0 mg/kg/injection, schedule: Q01DX009 (ip), vehicle: saline with Tween-80 102 % of control and 112 % of control | endpoint: mean survival time, dose: 50.0 mg/kg/injection, schedule: Q01DX009 (ip), vehicle: saline with Tween-80 100 % of control and 110 % of control | [2] 93 % of control and 106 % of control | [3] 97 % of control and 100 % of control

Cc1ccc(S)cc1
inactive: [4] 98 % of control | endpoint: mean survival time, dose: 100.0 mg/kg/injection, schedule: Q04DX003 (ip), vehicle: saline sonified 100 % of control | [5] 90 % of control | endpoint: mean survival time, dose: 200.0 mg/kg/injection, schedule: Q04DX003 (ip), vehicle: saline sonified 95 % of control | [6] 90 % of control | endpoint: mean survival time, dose: 400.0 mg/kg/injection, schedule: Q04DX003 (ip), vehicle: saline sonified 95 % of control

COc1ccc(/C=C/C(=O)c2ccc(OC)c(OC)c2)cc1OC
inactive: [7] 96 % of control | [8] 101 % of control | [9] 98 % of control

C=C1C=C(C)CC(C)(C)C1 (tested in a mixture with another compound)
inactive: endpoint: mean survival time, dose: 100.0 mg/kg/injection, schedule: Q01DX009 (ip), vehicle: saline 101 % of control | [7] 102 % of control | endpoint: mean survival time, dose: 200.0 mg/kg/injection, schedule: Q01DX009 (ip), vehicle: saline 101 % of control | [8] 100 % of control | endpoint: mean survival time, dose: 400.0 mg/kg/injection, schedule: Q01DX009 (ip), vehicle: saline 101 % of control | [9] 102 % of control

O=[N+]([O-])O.[Sc]
inactive: endpoint: mean survival time, dose: 6.25 mg/kg/injection, schedule: Q01DX009 (ip), vehicle: saline 93 % of control | endpoint: mean survival time, dose: 12.5 mg/kg/injection, schedule: Q01DX009 (ip), vehicle: saline 90 % of control | endpoint: mean survival time, dose: 25.0 mg/kg/injection, schedule: Q01DX009 (ip), vehicle: saline 88 % of control | [10] 100 % of control | endpoint: mean survival time, dose: 400.0 mg/kg/injection, schedule: Q01DX001 (ip), vehicle: saline 93 % of control

CC1CCCN(N=Nc2ccc(Br)cc2-c2nc(N)c3cc(Br)ccc3n2)C1 (configuration not stated)
inactive: endpoint: mean survival time, dose: 100.0 mg/kg/injection, schedule: Q01DX001 (ip), vehicle: Klucel (hydroxypropylcellulose) (HPC) 103 % of control | endpoint: mean survival time, dose: 400.0 mg/kg/injection, schedule: Q01DX001 (ip), vehicle: Klucel (hydroxypropylcellulose) (HPC) 90 % of control

NS(=O)(=O)c1cccc([As](=O)(O)O)c1
inactive: endpoint: mean survival time, dose: 50.0 mg/kg/injection, schedule: Q04DX003 (ip), vehicle: saline 105 % of control | endpoint: mean survival time, dose: 100.0 mg/kg/injection, schedule: Q04DX003 (ip), vehicle: saline 95 % of control | endpoint: mean survival time, dose: 200.0 mg/kg/injection, schedule: Q04DX003 (ip), vehicle: saline 94 % of control

O=C(Nc1ccc2ccccc2c1)OC1CCS(=O)(=O)C1 (configuration not stated)
inactive: endpoint: mean survival time, dose: 75.0 mg/kg/injection, schedule: Q04DX003 (ip), vehicle: saline 102 % of control | endpoint: mean survival time, dose: 150.0 mg/kg/injection, schedule: Q04DX003 (ip), vehicle: saline 102 % of control | endpoint: mean survival time, dose: 300.0 mg/kg/injection, schedule: Q04DX003 (ip), vehicle: saline 98 % of control

CSc1nc(NC2OCC(O)C(O)C2O)c(Br)c(=O)[nH]1 (configuration not stated)
inactive: endpoint: median survival time, dose: 12.5 mg/kg/injection, schedule: Q01DX005 (ip), vehicle: saline with Tween-80 101 % of control | endpoint: median survival time, dose: 25.0 mg/kg/injection, schedule: Q01DX005 (ip), vehicle: saline with Tween-80 101 % of control | endpoint: median survival time, dose: 50.0 mg/kg/injection, schedule: Q01DX005 (ip), vehicle: saline with Tween-80 101 % of control | endpoint: median survival time, dose: 100.0 mg/kg/injection, schedule: Q01DX005 (ip), vehicle: saline with Tween-80 101 % of control | endpoint: median survival time, dose: 200.0 mg/kg/injection, schedule: Q01DX005 (ip), vehicle: saline with Tween-80 101 % of control

N=C(N)c1cc(Cl)c(OCc2ccccc2)c(Cl)c1
inactive: endpoint: mean survival time, dose: 25.0 mg/kg/injection, schedule: Q04DX003 (ip), vehicle: saline with Tween-80 97 % of control | endpoint: mean survival time, dose: 50.0 mg/kg/injection, schedule: Q04DX003 (ip), vehicle: saline with Tween-80 96 % of control

O=[N+]([O-])c1cc(S(=O)(=O)c2ccc(N3CCCCC3)c([N+](=O)[O-])c2)ccc1N1CCCCC1
inactive: [2] 91 % of control | [3] 97 % of control | endpoint: mean survival time, dose: 400.0 mg/kg/injection, schedule: Q01DX009 (ip), vehicle: saline with Tween-80 95 % of control

COc1ccc2c(OC)cccc2c1
inactive: endpoint: mean survival time, dose: 100.0 mg/kg/injection, schedule: Q04DX003 (ip), vehicle: other 102 % of control | endpoint: mean survival time, dose: 200.0 mg/kg/injection, schedule: Q04DX003 (ip), vehicle: other 112 % of control | endpoint: mean survival time, dose: 400.0 mg/kg/injection, schedule: Q04DX003 (ip), vehicle: other 101 % of control

O=[N+]([O-])c1ccc(N/N=C(\CCl)c2ccccc2)c([N+](=O)[O-])c1
inactive: [4] 92 % of control | [5] 97 % of control | [6] 92 % of control

CCCCCOP(N)(=O)OCCCCC
inactive: [11] 88 % of control | [12] 92 % of control | endpoint: mean survival time, dose: 400.0 mg/kg/injection, schedule: Q04DX002 (ip), vehicle: saline with Tween-80 100 % of control

O=C(CCCl)c1ccc2c(c1)OCO2
inactive: [10] 104 % of control | endpoint: mean survival time, dose: 200.0 mg/kg/injection, schedule: Q01DX001 (ip), vehicle: saline 96 % of control

O=C[N]([Hg][Cl])c1ccccc1
inactive: [1] 86 % of control

[I][Pt+2][I].[NH-]c1cccc(F)c1.[NH-]c1cccc(F)c1
inactive: endpoint: mean survival time, dose: 3.13 mg/kg/injection, schedule: Q04DX003 (ip), vehicle: distilled water + Tween-80 102 % of control | endpoint: mean survival time, dose: 6.25 mg/kg/injection, schedule: Q04DX003 (ip), vehicle: distilled water + Tween-80 102 % of control | endpoint: mean survival time, dose: 12.5 mg/kg/injection, schedule: Q04DX003 (ip), vehicle: distilled water + Tween-80 106 % of control | endpoint: mean survival time, dose: 25.0 mg/kg/injection, schedule: Q04DX003 (ip), vehicle: distilled water + Tween-80 106 % of control | endpoint: mean survival time, dose: 50.0 mg/kg/injection, schedule: Q04DX003 (ip), vehicle: distilled water + Tween-80 112 % of control | endpoint: mean survival time, dose: 100.0 mg/kg/injection, schedule: Q04DX003 (ip), vehicle: distilled water + Tween-80 118 % of control

Cc1ccc(C(=O)Nc2cccc(-n3cnc4c(=O)[nH]c(N)nc43)c2)cc1S(=O)(=O)F
inactive: endpoint: mean survival time, dose: 50.0 mg/kg/injection, schedule: Q04DX002 (ip), vehicle: saline with Tween-80 90 % of control | [11] 101 % of control | [12] 86 % of control

C=C(NC(=O)C(=C)NC(=O)c1csc(C2=NC3c4csc(n4)C4NC(=O)c5csc(n5)C(C(C)(O)C(C)O)NC(=O)C5CSC(=N5)/C(=C/C)NC(=O)C(C(C)O)NC(=O)c5csc(n5)C3(CC2)NC(=O)C(C)NC(=O)C(=C)NC(=O)C(C)NC(=O)C(C(C)CC)NC2C=Cc3c(C(C)O)cc(nc3C2O)C(=O)OC4C)n1)C(N)=O (configuration not stated)
inactive: endpoint: mean survival time, dose: 118.0 mg/kg/injection, schedule: Q04DX003 (ip), vehicle: saline 117 % of control

CC1CC[N-]CC1.CC1CC[N-]CC1.CS(C)=O.[Cl][Rh]([Cl])[Cl]
inactive: [7] 96 % of control

Cc1ccc(C(C)C)c(OCC[N+]2(CCOc3cc(C)ccc3C(C)C)CC=CC2)c1
inactive: endpoint: mean survival time, dose: 6.25 mg/kg/injection, schedule: Q04DX002 (ip), vehicle: saline with Tween-80 100 % of control | endpoint: mean survival time, dose: 12.5 mg/kg/injection, schedule: Q04DX002 (ip), vehicle: saline with Tween-80 94 % of control | endpoint: mean survival time, dose: 25.0 mg/kg/injection, schedule: Q04DX002 (ip), vehicle: saline with Tween-80 100 % of control

S=c1n(Cc2ccccc2)cnc2ncnn12
inactive: endpoint: mean survival time, dose: 100.0 mg/kg/injection, schedule: Q04DX003 (ip), vehicle: Klucel (hydroxypropylcellulose) (HPC) 98 % of control | endpoint: mean survival time, dose: 200.0 mg/kg/injection, schedule: Q04DX003 (ip), vehicle: Klucel (hydroxypropylcellulose) (HPC) 111 % of control
